Measured values: article PMC11247118 (CPT: Pharmacometrics & Systems Pharmacology, 2024)
Like-named read-outs stand apart in the source and are kept apart here.

How the values were obtained:
[1] = test system: Patient bacterial isolates (Gram-positive); test: MIC of vancomycin for patient bacterial isolates; type: cell-based; details: majority of clinical isolates of the two study institutions, broth microdilution
[2] = test system: Gram-positive bacteria; details: 29 of 180 cases with Gram-positive isolates detected
[3] = cited from earlier work
[4] = test system: Gram-positive bacteria / MRSA; details: cited from earlier work
[5] = cited from earlier work; remark: listed apart in the source
[6] = Therapeutic drug monitoring of serum vancomycin concentrations; details: serum TDM samples, SD
[7] = Population pharmacokinetic model; details: for CLp, typical value of apparent clearance / Vp, typical value of apparent volume of distribution: estimate (% standard error), SEM
[8] = bootstrap of final model, 996/1000 runs successful

## CN[C@H](CC(C)C)C(=O)N[C@H]1C(=O)N[C@@H](CC(N)=O)C(=O)N[C@H]2C(=O)N[C@H]3C(=O)N[C@H](C(=O)N[C@H](C(=O)O)c4cc(O)cc(O)c4-c4cc3ccc4O)[C@H](O)c3ccc(c(Cl)c3)Oc3cc2cc(c3O[C@@H]2O[C@H](CO)[C@@H](O)[C@H](O)[C@H]2O[C@H]2C[C@](C)(N)[C@H](O)[C@H](C)O2)Oc2ccc(cc2Cl)[C@H]1O [vancomycin]
[1]
  MIC values of clinical isolates: ≤ 1 µg/mL
[2]
  treatment failure rate: 16%
[3]; after intravenous administration
  fraction eliminated by the renal system and excreted in the urine as a prototype: approximately 90%
[3]; reported to reach as high as
  inter-individual variability (IIV) of clearance (CL): ≤ 99.2%
[3]; summarized in a systematic review
  known range of weight-adjusted CL in pediatric patients: 0.258 to 4.25 mL/min/kg
[4]; multicenter study, Chinese children, 37.79 ± 11.31 mg/kg/day
  microbiological eradication rate: > 80%
[4]; pediatric patients with median AUC/MIC between 200 and 300, ref 40 (Shen et al.)
  overall clinical effective rate: 92.6%
[5]; Chinese children
  AUC0-24 threshold for predicting vancomycin-associated nephrotoxicity: < 537 µg·h/mL
[5]; Chinese neonates
  AUC0-24 threshold for predicting vancomycin-associated nephrotoxicity: < 480 µg·h/mL
[6]; model validation dataset N = 67, 76 concentrations
  Vancomycin concentration, mean ± standard deviation: 6.89 ± 2.63 mg/L
[6]; model-building dataset N1 = 210, 272 concentrations
  Vancomycin concentration, mean ± standard deviation: 8.7 ± 6.0 mg/L
[6]; model-building dataset N2 = 176, 249 concentrations
  Vancomycin concentration, mean ± standard deviation: 8.27 ± 5.85 mg/L
[6]; model-building dataset Total = 386, 521 concentrations
  Vancomycin concentration, mean ± standard deviation: 8.52 ± 5.93 mg/L
[7]; [8]
  CLage>2, bootstrap median: 2.56 L/h
  CLage≤2, bootstrap median: 1.97 L/h
  Vd, bootstrap median: 22.2 L
[7]; candidate Model I, 3/4 allometric model
  CLp, typical value of apparent clearance: 2.09 (4.3) L/h
[7]; candidate Model I
  Vp, typical value of apparent volume of distribution: 40.9 (14.6) L
[7]; candidate Model II, allometric model
  CLp, typical value of apparent clearance: 2.10 (4.0) L/h
[7]; candidate Model II
  Vp, typical value of apparent volume of distribution: 23.8 (28.2) L
[7]; candidate Model III
  Vp, typical value of apparent volume of distribution: 40.8 (14.5) L
[7]; candidate Model IV
  Vp, typical value of apparent volume of distribution: 23.0 (25.5) L
[7]; candidate Model V, BW-dependent exponent model
  CLp, typical value of apparent clearance: 2.30 (5.0) L/h
[7]; candidate Model V
  Vp, typical value of apparent volume of distribution: 23.3 (27.1) L
[7]; candidate Model VI, age-dependent exponent model
  CLp, typical value of apparent clearance: 2.42 (5.5) L/h
[7]; candidate Model VI
  Vp, typical value of apparent volume of distribution: 22.7 (25.5) L
[7]; final PPK model, age >2 years old
  weight-adjusted typical CL: 3.6 mL/min/kg
[7]; final PPK model, age >2 years old, typical value at BW 12 kg and CLcr 75 mL/min
  CLage>2, final model estimate: 2.59 L/h
[7]; final PPK model, age ≤2 years old
  weight-adjusted typical CL: 2.75 mL/min/kg
[7]; final PPK model, age ≤2 years old, typical value at BW 12 kg and CLcr 75 mL/min
  CLage≤2, final model estimate: 1.98 L/h
[7]; final PPK model, typical value at BW 12 kg
  Vd, final model estimate: 22.4 L
